Some results are limits rather than exact numbers.

For this experiment, the target named is endogenous, cell-bound CD73 on SK-MEL-28 cells (Homo sapiens (Human), UniProt P21589). Nature of the experiment: Inhibition of endogenous, cell-bound CD73 enzyme activity in SK-MEL-28 cells (Malachite Green). Type of experiment: cell-based. The note with it: 100 μM AMP, 30 minutes at room temperature. As to the method: The day before the experiment, 5000 cells were plated per well in a 96-well plate. Cells were washed twice with […] reaction buffer (20 mM HEPES, pH 7.4, 125 mM NaCl, 1 mM KCl, 2 mM MgCl2, 10 mM glucose) to remove residual inorganic phosphate. After washing, assays contained serial dilutions of test compounds and 100 μM of AMP in a total volume of 200 μL reaction buffer, with a final DMSO concentration≤0.5%. After 30 minutes at room temperature, supernatant was removed from the cells. […] The concentration of inorganic phosphate was determined using a phosphate standard curve to determine IC50.
endogenous, cell-bound CD73 on SK-MEL-28 cells, sequence (P21589 27-574): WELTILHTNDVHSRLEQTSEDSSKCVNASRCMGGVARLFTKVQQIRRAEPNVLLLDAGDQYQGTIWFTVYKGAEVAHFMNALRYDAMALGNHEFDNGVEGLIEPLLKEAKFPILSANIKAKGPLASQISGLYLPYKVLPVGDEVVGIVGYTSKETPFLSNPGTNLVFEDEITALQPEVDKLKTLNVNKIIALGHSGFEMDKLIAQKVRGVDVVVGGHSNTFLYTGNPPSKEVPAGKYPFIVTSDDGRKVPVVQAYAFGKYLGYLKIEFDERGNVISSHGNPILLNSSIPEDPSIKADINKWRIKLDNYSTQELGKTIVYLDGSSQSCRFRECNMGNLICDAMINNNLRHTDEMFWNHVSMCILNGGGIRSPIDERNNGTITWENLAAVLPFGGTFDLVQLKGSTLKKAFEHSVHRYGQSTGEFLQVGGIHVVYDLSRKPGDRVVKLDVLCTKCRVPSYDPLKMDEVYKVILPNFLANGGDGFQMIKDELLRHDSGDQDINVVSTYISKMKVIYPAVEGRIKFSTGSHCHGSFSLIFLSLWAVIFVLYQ
The term IC50 denotes the concentration that gives 50% inhibition. In the case of `Nc1nc(Cl)nc2c1ncn2[C@@H]1O[C@H](COC(Cc2cccc(-c3nnn[nH]3)c2)(C(=O)O)C(=O)O)[C@@H](O)[C@@H]1F` [compound 53, 2-(3-(1H-tetrazol-5-yl)benzyl)-2-(((2R,3R,4S,5R)-5-(6-amino-2-chloro-9H-purin-9-yl)-4-fluoro-3-hydroxytetrahydrofuran-2-yl)methoxy)malonic acid], the IC50 was 2600 nM.
In the case of `Nc1nc(Cl)nc2c1ncn2[C@@H]1O[C@H](COC(Cc2ccc(-c3nnn[nH]3)cc2)(C(=O)O)C(=O)O)[C@@H](O)[C@@H]1F` [compound 54, 2-(4-(1H-tetrazol-5-yl)benzyl)-2-(((2R,3R,4S,5R)-5-(6-amino-2-chloro-9H-purin-9-yl)-4-fluoro-3-hydroxytetrahydro-furan-2-yl)methoxy)malonic acid], the IC50 was 973 nM.
The figure for `Nc1nc(Cl)nc2c1ncn2[C@@H]1O[C@H](COC(Cc2ccccc2)(C(=O)O)C(=O)O)[C@@H](O)[C@H]1N` [compound 55, 2-(((2R,3S,4R,5R)-4-amino-5-(6-amino-2-chloro-9H-purin-9-yl)-3-hydroxytetrahydrofuran-2-yl)methoxy)-2-benzylmalonic acid] is over 50000 nM.
With `Nc1nc(Cl)nc2c1ncn2[C@@H]1O[C@H](COC(Cc2cccc(O)c2)(C(=O)O)C(=O)O)[C@@H](O)[C@@H]1F` [compound 56, 2-(((2R,3R,4S,5R)-5-(6-amino-2-chloro-9H-purin-9-yl)-4-fluoro-3-hydroxytetrahydrofuran-2-yl)methoxy)-2-(3-hydroxybenzyl)malonic acid] the figure was 1250 nM.
Compound `Nc1nc(Cl)nc2c1ncn2[C@@H]1O[C@H](COC(Cc2ccc(C(=O)O)c(F)c2)(C(=O)O)C(=O)O)[C@@H](O)[C@@H]1F` [compound 58, 2-(((2R,3R,4S,5R)-5-(6-amino-2-chloro-9H-purin-9-yl)-4-fluoro-3-hydroxytetrahydro-furan-2-yl)methoxy)-2-(4-carboxy-3-fluorobenzyl)malonic acid] gave an IC50 of 853 nM.
With `Nc1nc(Cl)nc2c1ncn2[C@@H]1O[C@H](COC(Cc2ccc(C(F)(F)F)o2)(C(=O)O)C(=O)O)[C@@H](O)[C@@H]1F` [compound 59, 2-(((2R,3R,4S,5R)-5-(6-amino-2-chloro-9H-purin-9-yl)-4-fluoro-3-hydroxytetrahydro-furan-2-yl)methoxy)-2-((5-(trifluoromethyl)-furan-2-yl)methyl)malonic acid] the figure was 6980 nM.
`Nc1nc(Cl)nc2c1ncn2[C@@H]1O[C@H](COC(Cc2ccc(C(F)(F)F)c(F)c2)(C(=O)O)C(=O)O)[C@@H](O)[C@@H]1F` [compound 60, 2-(((2R,3R,4S,5R)-5-(6-amino-2-chloro-9H-purin-9-yl)-4-fluoro-3-hydroxytetrahydro-furan-2-yl)methoxy)-2-(3-fluoro-4-(trifluoromethyl)benzyl)malonic acid]: half-maximal inhibition (IC50) was put at 512 nM.
Turning to `Nc1nc(Cl)nc2c1ncn2[C@@H]1O[C@H](COC(Cc2cc(-c3ccccc3)no2)(C(=O)O)C(=O)O)[C@@H](O)[C@@H]1F` [compound 61, 2-(((2R,3R,4S,5R)-5-(6-amino-2-chloro-9H-purin-9-yl)-4-fluoro-3-hydroxytetrahydrofuran-2-yl)methoxy)-2-((3-phenylisoxazol-5-yl)methyl)malonic acid], the concentration for half-maximal inhibition (IC50) amounted to 6970 nM.
`Nc1nc(Cl)nc2c1ncn2[C@@H]1O[C@H](COC(Cc2cnn(Cc3ccccc3)c2)(C(=O)O)C(=O)O)[C@@H](O)[C@@H]1F` [compound 63, 2-(((2R,3R,4S,5R)-5-(6-amino-2-chloro-9H-purin-9-yl)-4-fluoro-3-hydroxytetrahydro-furan-2-yl)methoxy)-2-((1-benzyl-1H-pyrazol-4-yl)methyl)malonic acid] showed an IC50 of 2010 nM.
For the compound `Nc1nc(Cl)nc2c1ncn2[C@@H]1O[C@H](COC(Cc2cn[nH]c2)(C(=O)O)C(=O)O)[C@@H](O)[C@@H]1F` [compound 64, 2-((1H-pyrazol-4-yl)methyl)-2-(((2R,3R,4S,5R)-5-(6-amino-2-chloro-9H-purin-9-yl)-4-fluoro-3-hydroxytetrahydrofuran-2-yl)methoxy)malonic acid], the midpoint of inhibition, the IC50, lay at 588 nM.
The figure for `Nc1nc(Cl)nc2c1ncn2[C@@H]1O[C@H](COC(Cc2ccc(OCc3ccccc3)cc2)(C(=O)O)C(=O)O)[C@@H](O)[C@@H]1F` [compound 65, 2-(((2R,3R,4S,5R)-5-(6-amino-2-chloro-9H-purin-9-yl)-4-fluoro-3-hydroxytetrahydrofuran-2-yl)methoxy)-2-(4-(benzyloxy)benzyl)malonic acid] is 196 nM; for `Nc1nc(Cl)nc2c1ncn2[C@@H]1O[C@H](COC(Cc2ccc(O)cc2)(C(=O)O)C(=O)O)[C@@H](O)[C@@H]1F` [compound 66, 2-(((2R,3R,4S,5R)-5-(6-amino-2-chloro-9H-purin-9-yl)-4-fluoro-3-hydroxytetrahydrofuran-2-yl)methoxy)-2-(4-hydroxybenzyl)malonic acid] it is 426 nM.
The figure for `Nc1nc(Cl)nc2c1ncn2[C@@H]1O[C@H](COC(Cc2cnc(C(=O)O)s2)(C(=O)O)C(=O)O)[C@@H](O)[C@@H]1F` [compound 67, 2-(((2R,3R,4S,5R)-5-(6-amino-2-chloro-9H-purin-9-yl)-4-fluoro-3-hydroxytetrahydro-furan-2-yl)methoxy)-2-((2-carboxythiazol-5-yl)methyl)malonic acid] is 1310 nM; for `Nc1nc(Cl)nc2c1ncn2[C@@H]1O[C@H](COC(Cc2csc(C(=O)O)n2)(C(=O)O)C(=O)O)[C@@H](O)[C@@H]1F` [compound 68, 2-(((2R,3R,4S,5R)-5-(6-amino-2-chloro-9H-purin-9-yl)-4-fluoro-3-hydroxytetrahydro-furan-2-yl)methoxy)-2-((2-carboxythiazol-4-yl)methyl)malonic acid] it is 924 nM; for `N#Cc1ccc(CC(OC[C@H]2O[C@@H](n3cnc4c(N)nc(Cl)nc43)[C@@H](F)[C@@H]2O)(C(=O)O)C(=O)O)cc1F` [compound 75, 2-(((2R,3R,4S,5R)-5-(6-amino-2-chloro-9H-purin-9-yl)-4-fluoro-3-hydroxytetrahydrofuran-2-yl)methoxy)-2-(4-cyano-3-fluorobenzyl)malonic acid] it is 990 nM.
The figure for `Nc1nc(Cl)nc2c1ncn2[C@@H]1O[C@H](COC(Cc2csc(C(=O)O)c2)(C(=O)O)C(=O)O)[C@@H](O)[C@@H]1F` [compound 76, 2-(((2R,3R,4S,5R)-5-(6-amino-2-chloro-9H-purin-9-yl)-4-fluoro-3-hydroxytetrahydro-furan-2-yl)methoxy)-2-((5-carboxythiophen-3-yl)methyl)malonic acid] is 305 nM.
The compound `Nc1nc(Cl)nc2c1ncn2[C@@H]1O[C@H](COC(Cc2ccc(C(=O)O)s2)(C(=O)O)C(=O)O)[C@@H](O)[C@@H]1F` [compound 77, 2-(((2R,3R,4S,5R)-5-(6-amino-2-chloro-9H-purin-9-yl)-4-fluoro-3-hydroxytetrahydro-furan-2-yl)methoxy)-2-((5-carboxythiophen-2-yl)methyl)malonic acid] showed a 50% inhibitory concentration (IC50) of 1330 nM.
Compound `Nc1nc(Cl)nc2c1ncn2[C@@H]1O[C@H](COC(Cc2ccc(CC(=O)O)cc2)(C(=O)O)C(=O)O)[C@@H](O)[C@@H]1F` [compound 78, 2-(((2R,3R,4S,5R)-5-(6-amino-2-chloro-9H-purin-9-yl)-4-fluoro-3-hydroxytetrahydrofuran-2-yl)methoxy)-2-(4-(carboxymethyl)benzyl)malonic acid] showed an IC50 of 234 nM.
In turn, `Nc1nc(Cl)nc2c1ncn2[C@@H]1O[C@H](COC(Cc2ccc(-c3ccccc3)cc2)(C(=O)O)C(=O)O)[C@@H](O)[C@@H]1F` [compound 79, 2-([1,1′-biphenyl]-4-ylmethyl)-2-(((2R,3R,4S,5R)-5-(6-amino-2-chloro-9H-purin-9-yl)-4-fluoro-3-hydroxytetrahydro-furan-2-yl)methoxy)malonic acid] gave an IC50 of 162 nM.
The compound `Nc1nc(Cl)nc2c1ncn2[C@@H]1O[C@H](COC(Cc2ccc(Cl)cc2F)(C(=O)O)C(=O)O)[C@@H](O)[C@@H]1F` [compound 80, 2-(((2R,3R,4S,5R)-5-(6-amino-2-chloro-9H-purin-9-yl)-4-fluoro-3-hydroxytetrahydrofuran-2-yl)methoxy)-2-(4-chloro-2-fluorobenzyl)malonic acid] registered a concentration for half-maximal inhibition (IC50) of 177 nM.
With `Nc1nc(Cl)nc2c1ncn2[C@@H]1O[C@H](COC(Cc2cc(C(=O)O)no2)(C(=O)O)C(=O)O)[C@@H](O)[C@@H]1F` [compound 83, 2-(((2R,3R,4S,5R)-5-(6-amino-2-chloro-9H-purin-9-yl)-4-fluoro-3-hydroxytetrahydrofuran-2-yl)methoxy)-2-((3-carboxyisoxazol-5-yl)methyl)malonic acid] the figure was 5200 nM; with `COc1ccc(CC(OC[C@H]2O[C@@H](n3cnc4c(N)nc(Cl)nc43)[C@@H](F)[C@@H]2O)(C(=O)O)C(=O)O)cc1Cl` [compound 85, 2-(((2R,3R,4S,5R)-5-(6-amino-2-chloro-9H-purin-9-yl)-4-fluoro-3-hydroxytetrahydrofuran-2-yl)methoxy)-2-(3-chloro-4-methoxybenzyl)malonic acid], 1370 nM.
The figure for `Nc1nc(Cl)nc2c1ncn2[C@@H]1O[C@H](COC(Cc2ccc(S(N)(=O)=O)cc2)(C(=O)O)C(=O)O)[C@@H](O)[C@@H]1F` [compound 86, 2-(((2R,3R,4S,5R)-5-(6-amino-2-chloro-9H-purin-9-yl)-4-fluoro-3-hydroxytetrahydrofuran-2-yl)methoxy)-2-(4-sulfamoylbenzyl)malonic acid] is 626 nM; for `Nc1nc(Cl)nc2c1ncn2[C@@H]1O[C@H](COC(Cc2ccc(C(=O)NCCC(=O)O)cc2)(C(=O)O)C(=O)O)[C@@H](O)[C@@H]1F` [compound 87, 2-(((2R,3R,4S,5R)-5-(6-amino-2-chloro-9H-purin-9-yl)-4-fluoro-3-hydroxytetrahydro-furan-2-yl)methoxy)-2-(4-((2-carboxy-ethyl)carbamoyl)benzyl)malonic acid] it is 549 nM.
